Assay results taken from patent publication US9856264B2, “Isoquinolinesulfonyl derivative as RHO kinase inhibitor” (MEDSHINE DISCOVERY INC., priority 2014, dated 2018).

Target: ROCK kinase
Assay: In vitro ROCK kinase inhibition activity evaluation (33P-ATP filter-binding)
Type: biochemical
Parameters: key to ROCK inhibition activity: 1 μM ≦ + < 5 μM; 0.1 μM ≦ ++ < 1 μM; +++ < 0.1 μM; −− N/A
Details: 1 nM ROCK kinase, 20 μM Long S6 Kinase substrate peptide, 2 h room temperature
Experimental: Biological Activity Experiment: In Vitro ROCK Kinase Inhibition Activity Evaluation
Experimental Objective: Test ROCK Inhibition IC50 Value of Invented Compounds
Buffer solution: 20 mM Hepes (pH 7.5), 10 mM MgCl2, 1 mM EGTA, 0.02% Brij35, 0.02 mg/ml BSA, 0.1 mM Na3VO4, 2 mM DTT, 1% DMSO
To a freshly prepared buffer solution was added ROCK substrate Long S6 Kinase substrate peptide, with concentration at 20 μM. 1 nM ROCK kinase was then added, and well stirred. A series of DMSO solution (starting from 10 μM, dilution factor 3) of testing article was added using Echo550. The mixture was incubated for 20 min at room temperature, then was added ^33P-ATP (radioactive intensity 10 μCi/μL) to initiate reaction and further reacted for 2 h at room temperature. The mixture was filtered through P81 ion exchange paper (Whatman #3698-915), and washed by 0.75% phosphoric acid. The intensity of radiation was measured by Filter-Binding method.
The inhibition activity of the testing articles were measured by comparing the residue kinase activity to blank substrate (pure DMSO). Using Prism software ((GraphPad Software, San Diego Calif., USA) to calculate IC50 and curve.

Question: Which IC50 does the source give for `O=S(=O)(c1cccc2cncc(F)c12)N1C[C@H]2CNC[C@H]2C1` [Example 29, 4-fluoro-5-((hexahydropyrrolo[3,4-c]pyrrol-2(1H)-yl)sulfonyl)isoquinoline] here?
Answer: 100 to 1000 nM

Question: With `O=S(=O)(c1cccc2cncc(F)c12)N1CC2CCCNC2C1` (stereo not shown) [Example 30, 4-fluoro-5-((hexahydro-1H-pyrrolo[3,4-b]pyridin-6(2H)-yl)sulfonyl)isoquinoline] as the compound, how does the IC50 read?
Answer: 100 to 1000 nM

Question: For `O=S(=O)(c1cccc2cncc(C(F)F)c12)N1C[C@H]2CNC[C@H]2C1` [Example 35, 4-(difluoromethyl)-5-((hexahydropyrrolo[3,4-c]pyrrol-2(1H)-yl)sulfonyl)isoquinoline], which ROCK inhibition activity is on record?
Answer: −−

Question: Which ROCK inhibition activity does the source give for `O=S(=O)(c1cccc2cncc(C(F)F)c12)N1CC2CCNCC2C1` (stereo not shown) [Example 36, 4-(difluoromethyl)-5-((hexahydro-1H-pyrrolo[3,4-c]pyridin-2(3H)-yl)sulfonyl)isoquinoline] here?
Answer: −−

Question: How did the IC50 turn out when `Cc1cncc2cccc(S(=O)(=O)N3C[C@@H]4CCN[C@@H]4C3)c12` [Example 38, 5-((hexahydropyrrolo[3,4-d]pyrrol-5 (1H)-yl)sulfonyl)-4-methylisoquinoline] was run?
Answer: < 100 nM

Question: For `Cc1cncc2cccc(S(=O)(=O)N3CCC4NCCCC43)c12` (stereo not shown) [Example 42, 4-methyl-5-((octahydro-1H-pyrrolo[3,2-b]pyridin-1-yl)sulfonyl)isoquinoline], which IC50 is on record?
Answer: < 100 nM

Question: Which IC50 does the source give for `Cc1cncc2cccc(S(=O)(=O)N3C[C@H]4CNC[C@H]4C3)c12` [Example 43, 5-((hexahydropyrrolo[3,4-c]pyrrol-2(1H)-yl)sulfonyl)-4-methylisoquinoline] here?
Answer: < 100 nM

Question: How did the IC50 turn out when `Cc1cncc2cccc(S(=O)(=O)N3CC4CCNCC4C3)c12` (stereo not shown) [Example 44, 5-((hexahydro-1H-pyrrolo[3,4-c]pyridin-2(3H)-yl)sulfonyl)-4-methylisoquinoline] was run?
Answer: < 100 nM

Question: For `Cc1cncc2cccc(S(=O)(=O)N3CCC4NCCCC4C3)c12` (stereo not shown) [Example 45, 6-((4-methylisoquinolin-5-yl)sulfonyl)decahydro-1,6-naphthyridine], which IC50 is on record?
Answer: 1000 to 5000 nM

Question: With `COc1cncc2cccc(S(=O)(=O)N3CCC4NCCCC43)c12` (stereo not shown) [Example 51, 4-methoxy-5-((octahydro-1H-pyrrolo[3,2-b]pyridin-1-yl)sulfonyl)isoquinoline] as the compound, how does the IC50 read?
Answer: 1000 to 5000 nM

Question: `COc1cncc2cccc(S(=O)(=O)N3C[C@H]4CNC[C@H]4C3)c12` [Example 52, 5-((hexahydropyrrolo[3,4-c]pyrrol-2(1H)-yl)sulfonyl)-4-methoxyisoquinoline] was tested. Which IC50 did it give?
Answer: 1000 to 5000 nM

Question: For `COc1cncc2cccc(S(=O)(=O)N3CC4CCNCC4C3)c12` (stereo not shown) [Example 53, 5-((hexahydro-1H-pyrrolo[3,4-c]pyridin-2(3H)-yl)sulfonyl)-4-methoxyisoquinoline], which IC50 is on record?
Answer: 1000 to 5000 nM

Question: For `COc1cncc2cccc(S(=O)(=O)N3CCC4NCCCC4C3)c12` (stereo not shown) [Example 54, 6-((4-methoxyisoquinolin-5-yl)sulfonyl)decahydro-1,6-naphthyridine], which IC50 is on record?
Answer: 1000 to 5000 nM

Question: How did the IC50 turn out when `NC12CCC1CN(S(=O)(=O)c1cccc3cnccc13)C2` (stereo not shown) [Example 55, 3-(isoquinolin-5-ylsulfonyl)-3-azabicyclo[3.2.0]heptan-1-amine] was run?
Answer: 1000 to 5000 nM

Question: With `NC12CC1CN(S(=O)(=O)c1cccc3cnccc13)C2` (stereo not shown) [Example 56, 3-(isoquinolin-5-ylsulfonyl)-3-azabicyclo[3.1.0]hexan-1-amine] as the compound, how does the IC50 read?
Answer: 100 to 1000 nM

Question: For `CCNC12CC1CN(S(=O)(=O)c1cccc3cnccc13)C2` (stereo not shown) [Example 57, N-ethyl-3-(isoquinolin-5-ylsulfonyl)-3-azabicyclo[3.1.0]hexan-1-amine], which IC50 is on record?
Answer: 1000 to 5000 nM
